17 compounds from ChEMBL document CHEMBL1287759, “Discovery of novel osthole derivatives as potential anti-breast cancer treatment” (Bioorg Med Chem Lett, 2010) can be followed below.

Series [1] has as its system MCF7. As to the kind of experiment: Anticancer activity against human MCF7 assessed as inhibition of cell growth by MTT assay. It counts as functional, cell-based. On the technique in general: Tetrazolium assays rely on reduction of a dye to a coloured formazan, in cell work by metabolically active cells.
Series [2] deals with MDA-MB-231. As to the kind of experiment: Anticancer activity against human MDA-MB-231 assessed as inhibition of cell growth by MTT assay. Type of series: functional, cell-based.
The subject of series [3] is HEK293. As to the kind of experiment: Cytotoxicity against human HEK293 assessed as inhibition of cell growth. Type of series: cell-based.

With `COc1ccc2cc(-c3ccc(O)cc3)c(=O)oc2c1CCC(C)C`, the values for the IC50 in series [1] and in series [2] were 3.23 µM and 4.15 µM, respectively.

For `COc1ccc2cc(-c3ccc(F)c(F)c3)c(=O)oc2c1CCC(C)C`, the IC50 is 27.3 µM in series [1] and 33.6 µM in series [2].

Regarding `COc1ccc2cc(-c3ccc(OC(F)(F)F)cc3)c(=O)oc2c1CCC(C)C`, the IC50 in series [1] stood at 0.24 µM; in series [2], 0.31 µM. In addition, the Activity result in series [3] is reported as “Non-toxic”.

Consider `COc1ccc(-c2cc3ccc(OC)c(CCC(C)C)c3oc2=O)cc1OC`, for which the IC50 in series [1] was 51.6 µM; in series [2], greater than 50 µM.

As for `COc1ccc2cc(-c3ccc(Cl)cc3)c(=O)oc2c1CCC(C)C`, the concentration for half-maximal inhibition (IC50) in series [1] is 1.27 µM; in series [2], 5.23 µM. The Activity result in series [3] is listed as “Non-toxic”.

`COc1ccc2c(Oc3ccc4cc(-c5ccc(C(F)(F)F)cc5)c(=O)oc4c3CCC(C)C)cc(=O)oc2c1`: the IC50 in series [1] was 45.9 µM; in series [2], greater than 50 µM.

With `CC(C)CCc1c(Oc2cc(=O)oc3cc(O)ccc23)ccc2ccc(=O)oc12`, the IC50 in series [1] and in series [2] was greater than 50 µM each time.

On to `CC(C)CCc1c(O)ccc2ccc(=O)oc12`, for which the IC50 in series [1] and in series [2] was greater than 50 µM in each case.

As to `COc1ccc2cc(-c3ccc(C(F)(F)F)cc3)c(=O)oc2c1CCC(C)C`, the IC50 was found to be 24.5 µM in series [1] and 38.1 µM in series [2].

Turning to `COc1ccc2cc(-c3ccc(C)cc3)c(=O)oc2c1CCC(C)C`, the 50% inhibitory concentration (IC50) was 50.2 µM in series [1] and greater than 50 µM in series [2].

With `COc1ccc2cc(-c3cccnc3)c(=O)oc2c1CCC(C)C`, the IC50 in series [1] and in series [2] was greater than 50 µM throughout.

Regarding `COc1ccc2ccc(=O)oc2c1CCC(C)C`, the IC50 in series [1] was 47 µM; in series [2] it was greater than 50 µM.

With `CC(C)CCc1c(O)ccc2cc(-c3ccc(OC(F)(F)F)cc3)c(=O)oc12`, the IC50 was 5.7 µM in series [1] and 7.42 µM in series [2].

`COc1ccc2ccc(=O)oc2c1CC=C(C)C` [OSTHOLE]: the IC50 stood at 25.8 µM in series [1] and 30.2 µM in series [2].

`CC(C)CCc1c(O)ccc2cc(-c3ccc(C(F)(F)F)cc3)c(=O)oc12`: the IC50 in series [1] was 42.9 µM; in series [2] it was greater than 50 µM.

Regarding `COc1ccc2cc(-c3ccc(F)cc3)c(=O)oc2c1CCC(C)C`, the half-maximal inhibitory concentration (IC50) in series [1] is 52.6 µM; in series [2], greater than 50 µM.

For the compound `COc1ccc2c(Oc3ccc4ccc(=O)oc4c3CCC(C)C)cc(=O)oc2c1`, the half-inhibitory concentration (IC50) in series [1] and in series [2] was greater than 50 µM each time.

As a reminder, the IC50 is the midpoint of a concentration-inhibition curve.
